Assay results taken from patent US8119635B2, “Diazabicyclic central nervous system active agents” (Abbott Laboratories, priority 2000, dated 2012).
Where a name gives a salt, the structure may show the parent alone.

What follows are compounds tested against T1, neuronal nicotinic acetylcholine receptors (Rattus norvegicus, UniProt P09483+P12390) (assay: Binding of [3H]-cytisine to neuronal nicotinic acetylcholine receptors, crude synaptic membranes from whole rat brain). Settings: not given.
T1 construct: crude synaptic membrane preparations from whole rat brain; from tissue; host or cells: whole rat brain, crude synaptic membranes
T1 sequence (P09483 31-630): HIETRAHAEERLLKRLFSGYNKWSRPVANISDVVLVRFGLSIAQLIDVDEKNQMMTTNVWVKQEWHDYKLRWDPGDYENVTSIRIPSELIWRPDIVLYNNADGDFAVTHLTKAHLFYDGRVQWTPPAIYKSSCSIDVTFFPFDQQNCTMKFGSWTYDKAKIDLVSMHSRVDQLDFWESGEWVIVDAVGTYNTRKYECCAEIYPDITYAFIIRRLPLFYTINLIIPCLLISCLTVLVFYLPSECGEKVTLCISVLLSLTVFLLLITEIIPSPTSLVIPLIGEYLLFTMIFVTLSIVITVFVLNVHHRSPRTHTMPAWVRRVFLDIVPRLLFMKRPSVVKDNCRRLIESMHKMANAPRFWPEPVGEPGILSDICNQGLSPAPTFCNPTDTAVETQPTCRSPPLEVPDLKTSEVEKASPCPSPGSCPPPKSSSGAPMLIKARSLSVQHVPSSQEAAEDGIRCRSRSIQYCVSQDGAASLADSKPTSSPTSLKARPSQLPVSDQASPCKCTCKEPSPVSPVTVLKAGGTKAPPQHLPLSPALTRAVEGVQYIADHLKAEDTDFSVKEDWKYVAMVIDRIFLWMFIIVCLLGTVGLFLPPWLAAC
T1 sequence (P12390 25-500): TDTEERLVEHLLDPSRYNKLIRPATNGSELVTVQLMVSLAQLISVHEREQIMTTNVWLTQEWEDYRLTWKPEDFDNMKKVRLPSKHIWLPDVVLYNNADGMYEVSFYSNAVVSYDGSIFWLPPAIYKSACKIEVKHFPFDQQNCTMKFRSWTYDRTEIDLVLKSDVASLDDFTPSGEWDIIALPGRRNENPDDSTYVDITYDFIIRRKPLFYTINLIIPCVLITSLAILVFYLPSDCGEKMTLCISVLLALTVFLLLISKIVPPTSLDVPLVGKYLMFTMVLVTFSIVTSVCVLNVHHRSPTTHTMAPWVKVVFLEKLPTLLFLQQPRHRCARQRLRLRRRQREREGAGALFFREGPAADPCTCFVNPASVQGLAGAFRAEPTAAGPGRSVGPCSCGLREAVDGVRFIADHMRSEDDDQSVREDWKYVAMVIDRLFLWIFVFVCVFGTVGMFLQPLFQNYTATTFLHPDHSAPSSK
Protocol: The In Vitro protocols for determination of nicotinic acetylcholine channel receptor binding potencies of ligands were determined as follows.
Washed membranes were stored at −80° C. prior to use. Frozen aliquots were slowly thawed and resuspended in 20 volumes of buffer (containing: 120 mM NaCl, 5 mM KCl, 2 mM MgCl2, 2 mM CaCl2 and 50 mM Tris-Cl, pH 7.4 @[…]). After centrifuging at 20,000×g for 15 minutes, the pellets were resuspended in 30 volumes of buffer.
The test compounds were dissolved in water to make 10 mM stock solutions. Each solution was then diluted (1:100) with buffer (as above) and further taken through seven serial log dilutions to produce test solutions from 10^−5 to 10^−11 M.
Samples were incubated for 60 minutes at 4° C., then rapidly filtered through Whatman GF/B filters presoaked in 0.5% polyethyleneimine using 3×4 mL of ice-cold buffer. The filters are counted in 4 mL of Ecolume® (ICN). Nonspecific binding was determined in the presence of 10 μM (−)-nicotine and values were expressed as a percentage of total binding. IC50 values were determined with the RS-1 (BBN) nonlinear least squares curve-fitting program and IC50 values were converted to Ki values using the Cheng and Prusoff correction (Ki=IC50/(1+[ligand]/Kd of ligand).

Q: Which Ki does the source give for `N#Cc1cncc(N2CC[C@H]3CNC[C@H]32)c1` [Example 83, 5-((3aS,6aS)-hexahydropyrrolo[3,4-b]pyrrol-1(2H)-yl)nicotinonitrile fumarate] here?
A: 97 nM

Q: With `Clc1cc(N2C[C@H]3CCN[C@H]3C2)cnc1Br` [Example 59, (3aR,6aR)-5-(6-bromo-5-chloro-3-pyridinyl)octahydropyrrolo[3,4-b]pyrrole fumarate] as the compound, how does the Ki read?
A: 0.35 nM

Q: Which Ki does the source give for `Clc1ccc(N2CC[C@H]3CN[C@H]3C2)cn1` [Example 49, (1R,6S)-3-(6-chloro-3-pyridinyl)-3,8-diazabicyclo[4.2.0]octane fumarate] here?
A: 0.02 nM

Q: How did the Ki turn out when `Clc1ccc(N2C[C@H]3NCC[C@H]32)cn1` [Example 19, (1R,5R)-6-(6-chloro-3-pyridinyl)-2,6-diazabicyclo[3.2.0]heptane bis(4-methylbenzenesulfonate)] was run?
A: 576 nM

Q: Which Ki does the source give for `CN1C[C@@H]2CN(c3ccc(Cl)nc3)C[C@@H]2C1` [Example 4, cis-2-(6-chloro-3-pyridinyl)-5-methyloctahydropyrrolo[3,4-c]pyrrole dihydrochloride] here?
A: 36 nM

Q: Which Ki does the source give for `Oc1cncc(N2C[C@H]3CNC[C@H]3C2)c1` [Example 6, cis-2-(5-hydroxy-3-pyridinyl)octahydropyrrolo[3,4-c]pyrrole dihydrochloride] here?
A: 0.75 nM

Q: For `Clc1ccc(N2CC[C@@H]3CNC[C@@H]32)cn1` (relative stereo) [Example 16, cis-1-(6-chloro-3-pyridinyl)octahydropyrrolo[3,4-b]pyrrole hydrochloride], which Ki is on record?
A: 23 nM

Q: For `N#Cc1cncc(N2C[C@H]3CN[C@H]3C2)c1` [Example 79, 5-[(1R,5R)-3,6-diazabicyclo[3.2.0]hept-3-yl]nicotinonitrile fumarate], which Ki is on record?
A: 0.12 nM

Q: `N#Cc1cncc(N2CC[C@@H]3CNC[C@@H]32)c1` [Example 81, 5-((3aR,6aR)-hexahydropyrrolo[3,4-b]pyrrol-1(2H)-yl)nicotinonitrile] was tested. Which Ki did it give?
A: 11 nM

Q: For `CN1C[C@H]2CCN(c3ccc(Cl)nc3)[C@H]2C1` (relative stereo) [Example 17, cis-1-(6-chloro-3-pyridinyl)-5-methyloctahydropyrrolo[3,4-b]pyrrole hydrochloride], which Ki is on record?
A: 31 nM

Q: How did the Ki turn out when `Clc1cc(N2C[C@@H]3CCN[C@@H]3C2)cnc1Cl` [Example 25, (3aS,6aS)-5-(5,6-dichloro-3-pyridinyl)octahydropyrrolo[3,4-b]pyrrole hydrochloride] was run?
A: 1.4 nM

Q: For `Brc1cncc(N2C[C@@H]3CCN[C@@H]3C2)c1` [Example 31, (3aS,6aS)-5-(5-bromo-3-pyridinyl)octahydropyrrolo[3,4-b]pyrrole 4-methylbenzenesulfonate], which Ki is on record?
A: 14 nM

Q: `N#CCc1cc(N2C[C@H]3CCN[C@H]3C2)cnc1Br` [Example 66, [5-((3aR,6aR)-hexahydropyrrolo[3,4-b]pyrrol-5(1H)-yl)-2-bromo-3-pyridinyl]acetonitrile fumarate] was tested. Which Ki did it give?
A: 0.26 nM

Same assay, conditions: [3H]-CYT 1.25 nM, whole rat brain membranes, 60 minutes at 4° C.; IC50 converted to Ki by Cheng and Prusoff correction; read-out: Average Ki

Q: Which Ki does the source give for `Cc1cc(N2C[C@H]3CCNC[C@H]32)cnc1Cl` [Example 89, (1S,6R)-8-(6-chloro-5-methyl-3-pyridinyl)-3,8-diazabicyclo[4.2.0]octane fumarate] here?
A: 0.24 nM

Q: How did the Ki turn out when `Oc1cncc(N2CC[C@H]3CNC[C@H]32)c1` [Example 82, (3aS,6aS)-1-(5-hydroxy-3-pyridinyl)octahydropyrrolo[3,4-b]pyrrole dihydrochloride] was run?
A: 363 nM

Q: How did the Ki turn out when `Clc1cc(N2C[C@@H]3CCNC[C@@H]32)cnc1Cl` [Example 94, (1R,6S)-8-(5,6-dichloro-3-pyridinyl)-3,8-diazabicyclo[4.2.0]octane 4-methylbenzenesulfonate] was run?
A: 0.12 nM

Q: Which Ki does the source give for `COc1cncc(N2C[C@H]3CCNC[C@H]32)c1` [Example 88, (1S,6R)-8-(5-methoxy-3-pyridinyl)-3,8-diazabicyclo[4.2.0]octane fumarate] here?
A: 0.56 nM

Q: How did the Ki turn out when `c1cncc(N2C[C@H]3NCC[C@H]32)c1` [Example 20, (1R,5R)-6-(3-pyridinyl)-2,6-diazabicyclo[3.2.0]heptane bis(4-methylbenzenesulfonate)] was run?
A: 122 nM
